From patent US7678918B2, “Intermediates for imidazonaphthyridines” (3M Innovative Properties Company, priority 1997, dated 2010)

Columns and labels:
IFN = experiment: Cytokine Induction in Human Cells: interferon (IFN) secreted by PBMCs, A549/encephalomyocarditis bioassay; assay type: cell-based; settings: 18 to 24 hours; also: call rule not given here
How it was run: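 Human PBMCs from healthy donors at 1.5-2×10^6 cells/mL in RPMI with 10% FBS, exposed to compounds (typically 0.1 to 100 μM, ≤1% DMSO) for 18 to 24 h at 37° C. Secreted IFN measured by A549/encephalomyocarditis virus cytopathic-effect bioassay, in alpha reference units/mL against NIH human leukocyte IFN standard.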

TNF = experiment: Cytokine Induction in Human Cells: tumor necrosis factor (TNF) secreted by PBMCs, ELISA; assay type: cell-based; settings: 18 to 24 hours; also: call rule not given here
How it was run: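 Human donor PBMCs at 1.5-2×10^6 cells/mL in RPMI with 10% FBS were exposed to compound, generally at 0.1 to 100 μM (≤1% DMSO final), for 18 to 24 h at 37 °C. Secreted TNF in supernatant was measured by ELISA and reported as pg/mL.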

interferon α = experiment: Interferon (α) Induction in Human Cells (PBM's, 48 hours, A549 bioassay); assay type: cell-based; set-up: key: +: indicates that the compound induced interferon α at that particular concentration; −: indicates that the compound did not induce interferon α at that particular concentration; ±: indicates that the results were equivocal at that particular concentration; settings: 48 hours incubation
Method: An in vitro human blood cell system was used to assess interferon induction by compounds of the invention. Activity is based on the measurement of interferon secreted into culture media. Interferon is measured by bioassay.
Whole blood was collected by venipuncture into EDTA vacutainer tubes. Peripheral blood mononuclear cells (PBM's) were separated from whole blood by using either LeucoPREP™ Brand Cell Separation Tubes (available from Becton Dickinson) or Ficoll-Paque® solution (available from Pharmacia LKB Biotechnology Inc, Piscataway, N.J.). The PBM's were suspended at 1×10^6/mL in RPMI 1640 media (available from GIBCO, Grand Island, N.Y.) containing 25 mM HEPES (N-2-hydroxyethylpiperazine-N′-2-ethanesulfonic acid) and L-glutamine (1% penicillin-streptomycin solution added) with 10% heat inactivated (56° C. for 30 minutes) autologous serum added. 200 μL portions of PBM suspension were added to 96 well (flat bottom) MicroTest III sterile tissue culture plates.
The compounds were solubilized in ethanol, dimethyl sulfoxide or tissue culture water then diluted with tissue culture water, 0.01N sodium hydroxide or 0.01N hydrochloric acid (The choice of solvent will depend on the chemical characteristics of the compound being tested.). Ethanol or DMSO concentration should not exceed a final concentration of 1% for addition to the culture wells. Compounds were initially tested in a concentration range of from about 0.1 μg/mL to about 5 μg/mL. Compounds which show induction at a concentration of 0.5 μg/mL were then tested in a wider concentration range.
The solution of test compound was added in a volume (less than or equal to 50 μL) to the wells containing 200 μL of diluted whole blood or of PBM's in media. Solvent and/or media was added to control wells (wells with no test compound) and as needed to adjust the final volume of each well to 250 μL. The plates were covered with plastic lids, vortexed gently and then incubated for 48 hours at 37° C. with a 5% carbon dioxide atmosphere.
Following incubation, the plates were covered with parafilm and then centrifuged at 1000 rpm for 10 to 15 minutes at 4° C. in a Damon IEC Model CRU-5000 centrifuge. Media (about 200 μL) was removed from 4 to 8 wells and pooled into 2 mL sterile freezing vials. Samples were maintained at −70° C. until analysis.
Interferon was determined by bioassay using A549 human lung carcinoma cells challenged with encephalomyocarditis. The details of the bioassay method have been described by G. L. Brennan and L. H. Kronenberg in “Automated Bioassay of Interferons in Micro-test Plates”, Biotechniques, June/July 78, 1983, incorporated herein by reference. Briefly stated the method is as follows: interferon dilutions and A549 cells are incubated at 37° C. for 12 to 24 hours. The incubated cells are infected with an inoculum of encephalomyocarditis virus. The infected cells are incubated for an additional period at 37° C. before quantifying for viral cytopathic effect. The viral cytopathic effect is quantified by staining followed by spectrophotometric absorbance measurements. Results are expressed as alpha reference units/mL based on the value obtained for NIH HU IF-L standard. The interferon was identified as essentially all interferon alpha by testing in checkerboard neutralization assays against rabbit anti-human interferon (beta) and goat anti-human interferon (alpha) using A549 cell monolayers challenged with encephalomyocarditis virus.

Cc1nc2cnc3cccnc3c2n1CC(C)C [Example 34, 2-Methyl-1-(2-methylpropyl)-1H-imidazo[4,5-c][1,5]naphthyridine]
118 to 119 °C: melting point

CC(C)CNc1cc2nnnn2c2cnccc12 [Example 18, N^5-(2-Methylpropyl)tetrazolo[1,5-a][1,7]naphthyridin-5-amine]
220 to 221 °C: melting point

CCOCc1nc2cnc3cccnc3c2n1Cc1ccccc1 [Example 68, 2-Ethoxymethyl-1-phenylmethyl-1H-imidazo[4,5-c][1,5]naphthyridine]
118 to 119 °C: melting point

CCCCc1nc2c(N)nc3cccnc3c2n1CCNC(=O)C1CCC(=O)N1 (centres unmarked) [Example 213]
135 to 138 °C: melting point

CC(C)OCCCNc1c([N+](=O)[O-])cnc2cccnc12 [Example 71, N^4-(3-Isopropoxypropyl)-3-nitro[1,5]naphthyridin-4-amine]
62.5 to 63.5 °C: melting point

O=[N+]([O-])c1cnc2cccnc2c1NCCOc1ccccc1 [Example 81, N^4-(2-Phenoxyethyl)-3-nitro[1,5]naphthyridin-4-amine]
107 to 108 °C: melting point

CCCCc1nc2c(N)nc3cccnc3c2n1CC(C)C [Example 39, 2-Butyl-1-(2-methylpropyl)-1H-imidazo[4,5-c][1,5]naphthyridin-4-amine]
−: IFN induction (IFN; Dose Concentration 100.0 μM) | TNF induction (TNF; Dose Concentration 100.0 μM) | Interferon (α) Induction in Human Cells (interferon α; Dose Concentration 0.01 μg/mL) | Interferon (α) Induction in Human Cells (interferon α; Dose Concentration 0.05 μg/mL)
+: IFN induction (IFN; Dose Concentration 1.0 μM) | IFN induction (IFN; Dose Concentration 10.0 μM) | TNF induction (TNF; Dose Concentration 1.0 μM) | TNF induction (TNF; Dose Concentration 10.0 μM) | Interferon (α) Induction in Human Cells (interferon α; Dose Concentration 0.10 μg/mL) | Interferon (α) Induction in Human Cells (interferon α; Dose Concentration 0.50 μg/mL) | Interferon (α) Induction in Human Cells (interferon α; Dose Concentration 1.0 μg/mL) | Interferon (α) Induction in Human Cells (interferon α; Dose Concentration 5.0 μg/mL) | Interferon (α) Induction in Human Cells (interferon α; Dose Concentration 10.0 μg/mL) | Interferon (α) Induction in Human Cells (interferon α; Dose Concentration 25.0 μg/mL) | Interferon (α) Induction in Human Cells (interferon α; Dose Concentration 50.0 μg/mL)

CCCCc1nc2c(N)nc3c(c2n1CC(C)C)CCCN3 [Example 13, 2-Butyl-6,7,8,9-tetrahydro-1-(2-methylpropyl) 1H-imidazo[4,5-c][1,8]naphthyridin-4-amine]
−: Interferon (α) Induction in Human Cells (interferon α; Dose Concentration 0.01 μg/mL)
+: IFN induction (IFN; Dose Concentration 1.0 μM) | IFN induction (IFN; Dose Concentration 10.0 μM) | IFN induction (IFN; Dose Concentration 100.0 μM) | TNF induction (TNF; Dose Concentration 1.0 μM) | TNF induction (TNF; Dose Concentration 10.0 μM) | TNF induction (TNF; Dose Concentration 100.0 μM) | Interferon (α) Induction in Human Cells (interferon α; Dose Concentration 0.05 μg/mL) | Interferon (α) Induction in Human Cells (interferon α; Dose Concentration 0.10 μg/mL) | Interferon (α) Induction in Human Cells (interferon α; Dose Concentration 0.50 μg/mL) | Interferon (α) Induction in Human Cells (interferon α; Dose Concentration 1.0 μg/mL) | Interferon (α) Induction in Human Cells (interferon α; Dose Concentration 5.0 μg/mL) | Interferon (α) Induction in Human Cells (interferon α; Dose Concentration 10.0 μg/mL) | Interferon (α) Induction in Human Cells (interferon α; Dose Concentration 25.0 μg/mL) | Interferon (α) Induction in Human Cells (interferon α; Dose Concentration 50.0 μg/mL)

CC(C)Cn1cnc2c(N)nc3ncccc3c21 [Example 9, 1-(2-Methylpropyl)-1H-imidazo[4,5-c][1,8]naphthyridin-4-amine hydrate]
+: IFN induction (IFN; Dose Concentration 10.0 μM)
±: IFN induction (IFN; Dose Concentration 0.1 μM)
−: IFN induction (IFN; Dose Concentration 1.0 μM) | IFN induction (IFN; Dose Concentration 100.0 μM) | TNF induction (TNF; Dose Concentration 0.1 μM) | TNF induction (TNF; Dose Concentration 1.0 μM) | TNF induction (TNF; Dose Concentration 10.0 μM) | TNF induction (TNF; Dose Concentration 100.0 μM) | Interferon (α) Induction in Human Cells (interferon α; Dose Concentration 0.01 μg/mL) | Interferon (α) Induction in Human Cells (interferon α; Dose Concentration 0.05 μg/mL) | Interferon (α) Induction in Human Cells (interferon α; Dose Concentration 0.10 μg/mL) | Interferon (α) Induction in Human Cells (interferon α; Dose Concentration 0.50 μg/mL) | Interferon (α) Induction in Human Cells (interferon α; Dose Concentration 1.0 μg/mL) | Interferon (α) Induction in Human Cells (interferon α; Dose Concentration 5.0 μg/mL) | Interferon (α) Induction in Human Cells (interferon α; Dose Concentration 10.0 μg/mL) | Interferon (α) Induction in Human Cells (interferon α; Dose Concentration 25.0 μg/mL) | Interferon (α) Induction in Human Cells (interferon α; Dose Concentration 50.0 μg/mL)

CCCCc1nc2c(N)nc3ncccc3c2n1CC(C)C [Example 12, 2-Butyl-1-(2-methylpropyl)-1H-imidazo[4,5-c][1,8]naphthyridin-4-amine]
−: Interferon (α) Induction in Human Cells (interferon α; Dose Concentration 0.01 μg/mL) | Interferon (α) Induction in Human Cells (interferon α; Dose Concentration 0.05 μg/mL)
+: IFN induction (IFN; Dose Concentration 1.0 μM) | IFN induction (IFN; Dose Concentration 10.0 μM) | IFN induction (IFN; Dose Concentration 100.0 μM) | TNF induction (TNF; Dose Concentration 1.0 μM) | TNF induction (TNF; Dose Concentration 10.0 μM) | TNF induction (TNF; Dose Concentration 100.0 μM) | Interferon (α) Induction in Human Cells (interferon α; Dose Concentration 0.10 μg/mL) | Interferon (α) Induction in Human Cells (interferon α; Dose Concentration 0.50 μg/mL) | Interferon (α) Induction in Human Cells (interferon α; Dose Concentration 1.0 μg/mL) | Interferon (α) Induction in Human Cells (interferon α; Dose Concentration 5.0 μg/mL) | Interferon (α) Induction in Human Cells (interferon α; Dose Concentration 10.0 μg/mL) | Interferon (α) Induction in Human Cells (interferon α; Dose Concentration 25.0 μg/mL) | Interferon (α) Induction in Human Cells (interferon α; Dose Concentration 50.0 μg/mL)
